According to PubChem BioAssay AID743417 (Broad Institute, 2014):
Results filed as inconclusive are left out. Calls of active or inactive are those of the source.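 How the source made its calls: active means compounds lowering the luciferase signal with a fitted half-maximal dose at most twice their top valid dose (cut at about 30 µM in these data); inconclusive means flat fits with moderate signal loss, or poor fits; inactive means the rest.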 *1 amine or outer side, *2 acyl side, *3 side chain or, on linkers, in order; H or OH if unused. Where a SMILES comes first, the peptide text is derived from it. Bridges are numbered along the chain shown (N, C = ends). [ ]: non-standard residue; d: D form. ξ: configuration not given here. X1 = CC[C@H](CCC[C@@H](O)[C@@H](C)C(=O)O[C@H](C)[C@@H](C)C/C=C(C)/C(=C\C(=O)[*:1])OC)O[*:2]; NMeξIle = CC[C@H](C)C(NC)C(=O)O; NMeV = CN[C@H](C(=O)O)C(C)C; NMeS = CN[C@@H](CO)C(=O)O

These compounds were tested on Clone20 osteoblast Shn3 3'UTR firefly luciferase, 24 h (assay: Shn3 3'UTR reporter inhibitors, dose response, cell-based, Clone20 osteoblasts, luminescence, dry powder, set 2 (AID 743417)).

Going from `CCN1CCN(Cc2ccc(NC(=O)c3ccc(C)c(NC(=O)C(=O)c4c[nH]c5ccccc45)c3)cc2C(F)(F)F)CC1` to `O=C(Nc1ccc(S(=O)(=O)N2CCCC2)cc1)c1ccc(CN2CCc3ccccc3C2)cc1`, the AC50 falls from 7.49 µM to 0.575 µM (13-fold).

Compared with `Cn1nc(C(C)(C)C)cc1C(=O)N1CCCCC1c1cc(C(=O)Nc2cccc3c2CCCC3)no1` (stereo not given), `O=C(CSc1c2c(nc3ccc(Cl)cc13)CCCC2)N1CCN(C(=O)c2ccco2)CC1` is 2.7-fold lower in AC50: 10.2 µM for the first, 3.75 µM for the second.

Going from `O=C(c1ccccc1)C(CN1CCCC1)c1ccccc1` (stereo not given) to `O=C(Nc1nc(-c2ccccc2)cs1)C1CCCCN1S(=O)(=O)c1ccccc1` (stereo not given), the AC50 falls from 10.7 µM to 5.14 µM (2.1-fold).

Going from `COC(=O)[C@@]12CCCCN1[C@H](c1ccc(SC3CCCCC3)c(OC)c1)[C@@H]1C(=O)N(C)C(=O)[C@@H]12` to `CC(=O)N1c2ccc(S(=O)(=O)N3CCC(C(=O)N4CCN(c5cc(Cl)ccc5C)CC4)CC3)cc2CC1C` (stereo not given), the AC50 falls from 21.4 µM to 3.1 µM (6.9-fold).

First: C=C1C(=O)[C@@]23[C@H](O)C[C@@H]4C(C)(C)CC[C@H](O)[C@@]4(C)[C@@H]2CC[C@@H]1[C@H]3O
Second: CC1Sc2ccc(S(=O)(=O)N3CCC(C(=O)Nc4cccc(Cl)c4)CC3)cc2NC1=O (stereo not given)
The AC50 of the first is 2.5-fold lower: 1.29 µM for the first, 3.27 µM for the second.

Compared with `O=C(/C=C/c1ccccc1)NC(NC(=S)Nc1ccc(Cl)cc1)C(Cl)(Cl)Cl` (stereo not given), `O=C(NNC(=S)Nc1ccc(Cl)c(Cl)c1)c1ccccn1` is 2.2-fold lower in AC50: 5.13 µM for the first, 2.33 µM for the second.

Going from `CCCn1c(NC(=O)c2ccc(Cl)c(S(=O)(=O)N3CCCC3)c2)nc2ccccc21` to `CCN(CC)S(=O)(=O)c1cc(NC(=O)CNc2cccc(S(=O)(=O)N3CCCC3)c2)ccc1C`, the AC50 falls from 8.39 µM to 0.648 µM (13-fold).

First: O=c1c2ccccc2nc2n1C(CSCc1ccc(Cl)cc1Cl)CS2 (stereo not given)
Second: CCn1c(/C=C/c2ccc([N+](=O)[O-])o2)nc2ccccc2c1=O
The AC50 of the first is 3.1-fold lower: 1.45 µM for the first, 4.51 µM for the second.

Going from `CS(=O)(=O)c1ccc(C(=O)OCC(=O)Nc2cccnc2Cl)cc1[N+](=O)[O-]` to `CCOC(=O)COc1ccc2ccccc2c1/C=C/[N+](=O)[O-]`, the AC50 falls from 9.09 µM to 5.2 µM (1.7-fold).

First: O=C(c1ccc2c(=O)n(-c3ccccc3)c(=S)[nH]c2c1)N1CCCCC1
Second: O=C1CC(Sc2nnnn2-c2ccccc2)C(=O)N1c1cccc(Cl)c1 (stereo not given)
The AC50 of the first is 5.9-fold lower: 1.44 µM for the first, 8.53 µM for the second.

First: CCN(CC)S(=O)(=O)c1ccc(NC(=O)Nc2cccc(C(F)(F)F)c2)cc1
Second: Cc1cc(C)c2sc(NNC(=O)c3ccc(S(=O)(=O)N4CCc5ccccc5C4)cc3)nc2c1
The AC50 of the first is 3.1-fold higher: 5.6 µM for the first, 1.8 µM for the second.

First: CN(C)c1ccc(/C=C/c2ccc3c4ccccc4ccc3[n+]2-c2ccccc2)cc1
Second: CCCC(=O)NC(c1ccc(N(C)C)cc1)c1ccc2cccnc2c1O (stereo not given)
The AC50 of the first is lower: < 0.26 µM for the first, 0.916 µM for the second.

Compared with `CCCn1c(C)cc(C(=O)CN2C(=O)c3ccccc3S2(=O)=O)c1C`, `CCC(=O)c1cn(CC(=O)Nc2cccc(C)c2C)c2ccccc12` is 2-fold lower in AC50: 2.98 µM for the first, 1.52 µM for the second.

First: CCCCC(=O)NC(c1ccc(C(C)C)cc1)c1ccc2cccnc2c1O (stereo not given)
Second: CC(=O)NC(c1cc(Cl)c2cccnc2c1O)C(C)C (stereo not given)
The AC50 of the first is 5.2-fold lower: 0.57 µM for the first, 2.96 µM for the second.

Going from `Cc1ccc(-n2cc(CNCCCn3ccnc3C)c(-c3ccc(F)cc3)n2)cc1` to `Cc1ccc(-n2nnnc2C(Cl)(Cl)c2nnnn2-c2ccc(C)cc2)cc1`, the AC50 falls from 20.6 µM to 4.71 µM (4.4-fold).

Going from `CCC(=O)OCCNc1cc(Sc2nccn2C)c2nonc2c1[N+](=O)[O-]` to `CCOC(=O)CC1CCCCN1C(=O)c1cc(COc2cccc3cnccc23)on1` (stereo not given), the AC50 falls from 1.55 µM to 0.713 µM (2.2-fold).

`CC1=NNC(=O)/C1=C\c1cn(-c2ccccc2)nc1-c1ccccc1` and `CCOc1cc(/C=C2/C(=O)ON=C2C)ccc1OCc1ccccc1F` are within 1.5-fold of each other in AC50: 8.42 µM for the first, 6.95 µM for the second.

Compared with `CC1=C(C#N)C(C(F)(F)F)(C(F)(F)F)N=C(c2ccco2)N1`, `Fc1ccc(-n2nnnc2-c2cnc(-c3cccs3)nc2C(F)(F)F)cc1` is 1.7-fold lower in AC50: 7.72 µM for the first, 4.44 µM for the second.

`CCN(C(=O)C1CCN(c2nc(-c3ccc(OC)cc3)no2)CC1)c1ccc(OC)cc1` and `CC1CCN(c2ccccc2NC(=S)NC(=O)c2ccc(-c3cccc([N+](=O)[O-])c3)o2)CC1` are within 1.5-fold of each other in AC50: 3.17 µM for the first, 3.07 µM for the second.

`CC(=O)c1cccc(-c2csc3ncnc(Sc4nnnn4C)c23)c1` and `Cc1ccc(-c2nnc(N3CCC(C)CC3)c3ccccc23)cc1C` are within 1.5-fold of each other in AC50: 4.72 µM for the first, 6.41 µM for the second.

First: Cc1cc(C)n2nc(SCc3cccc(S(=O)(=O)N(C)C)c3)nc2n1
Second: COC(=O)c1cc2c(n1S(=O)(=O)c1ccc(C)cc1)C(=O)C(=O)c1[nH]cc(C(=O)OCc3ccccc3)c1-2
The AC50 of the first is 12-fold higher: 14 µM for the first, 1.2 µM for the second.

First: Cc1ccc(NC(=O)C2=C(c3ccccc3)S(=O)(=O)CCS2(=O)=O)cc1
Second: COC(=O)C1CN(C#N)N(c2ccc(Cl)cc2)C12c1ccccc1-c1ccccc12 (stereo not given)
The AC50 of the first is higher: 0.558 µM for the first, < 0.26 µM for the second.

Compared with `CC[C@@H]1CCC[C@@H](O)[C@@H](C)C(=O)O[C@H](C)[C@@H](C)C/C=C(C)/C(OC)=C\C(=O)N(C)C([C@@H](C)CC)C(=O)N(C)[C@@H](C(C)C)C(=O)N(C)[C@@H](COC)C(=O)N2CCC[C@H]2C(=O)N(C)[C@@H](C(C)C)C(=O)N2CCC[C@H]2C(=O)O1` (stereo not given in full) ([NMeξIle][NMeV][NMeS](Me)P[NMeV]P; linker N-C via X1), `COc1cccc(-c2cc(N3CCN(C(=O)c4ccoc4)CC3)n3nc(-c4cccc(Cl)c4)cc3n2)c1` is higher in AC50: < 0.26 µM for the first, 6.22 µM for the second.

With `O=C(Nc1ccc(N2CCN(C(=O)c3ccc(Cl)cc3)CC2)cc1)c1ccc2c(c1)OCCO2` the AC50 was 2.54 µM.

In the case of `C=CCOC(=O)C1=C(C)N=C2SCCC(=O)N2C1c1cccs1` (stereo not given), the AC50 is reported as > 70 µM (inactive).
For `Cc1ccc(C)c(S(=O)(=O)Nc2ccc(-n3cnnn3)cc2)c1`, the AC50 was > 70 µM (inactive).
For `COc1ccc(NS(=O)(=O)c2ccc(NC(=O)C(CCSC)NC(N)=O)cc2)cc1` (stereo not given), the AC50 was > 70 µM (inactive).
